Test results published in ChEMBL document CHEMBL3991601, “The target landscape of clinical kinase drugs” (Science, 2017).
Activity calls are given as the source filed them.

How the values were obtained:
[1] = target: Macrophage-stimulating protein receptor (Homo sapiens, UniProt Q04912)
[2] = target: T1, Ras-related protein Rab-10 (Homo sapiens, UniProt P61026)
T1 sequence (P61026 whole entry): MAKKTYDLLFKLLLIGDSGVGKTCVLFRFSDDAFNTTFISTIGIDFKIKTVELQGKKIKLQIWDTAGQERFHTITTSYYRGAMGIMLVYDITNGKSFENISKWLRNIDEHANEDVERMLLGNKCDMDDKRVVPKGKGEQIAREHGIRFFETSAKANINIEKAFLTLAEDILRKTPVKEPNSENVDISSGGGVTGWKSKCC

[3] = target: T2, Dual specificity mitogen-activated protein kinase kinase 3 (Homo sapiens, UniProt P46734)
T2 sequence (P46734 whole entry): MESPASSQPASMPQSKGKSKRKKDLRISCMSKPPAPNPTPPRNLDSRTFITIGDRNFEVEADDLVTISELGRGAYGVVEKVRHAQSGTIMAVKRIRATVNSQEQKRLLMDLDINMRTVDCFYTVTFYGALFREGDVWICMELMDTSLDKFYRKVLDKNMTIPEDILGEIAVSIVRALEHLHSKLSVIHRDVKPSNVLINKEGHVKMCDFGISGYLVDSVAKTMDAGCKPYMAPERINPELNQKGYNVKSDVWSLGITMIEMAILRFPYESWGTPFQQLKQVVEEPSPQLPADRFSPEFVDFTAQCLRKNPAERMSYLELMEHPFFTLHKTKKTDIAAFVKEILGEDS

[4] = target: T3, Peroxisomal acyl-coenzyme A oxidase 1 (Homo sapiens, UniProt Q15067)
T3 sequence (Q15067 whole entry): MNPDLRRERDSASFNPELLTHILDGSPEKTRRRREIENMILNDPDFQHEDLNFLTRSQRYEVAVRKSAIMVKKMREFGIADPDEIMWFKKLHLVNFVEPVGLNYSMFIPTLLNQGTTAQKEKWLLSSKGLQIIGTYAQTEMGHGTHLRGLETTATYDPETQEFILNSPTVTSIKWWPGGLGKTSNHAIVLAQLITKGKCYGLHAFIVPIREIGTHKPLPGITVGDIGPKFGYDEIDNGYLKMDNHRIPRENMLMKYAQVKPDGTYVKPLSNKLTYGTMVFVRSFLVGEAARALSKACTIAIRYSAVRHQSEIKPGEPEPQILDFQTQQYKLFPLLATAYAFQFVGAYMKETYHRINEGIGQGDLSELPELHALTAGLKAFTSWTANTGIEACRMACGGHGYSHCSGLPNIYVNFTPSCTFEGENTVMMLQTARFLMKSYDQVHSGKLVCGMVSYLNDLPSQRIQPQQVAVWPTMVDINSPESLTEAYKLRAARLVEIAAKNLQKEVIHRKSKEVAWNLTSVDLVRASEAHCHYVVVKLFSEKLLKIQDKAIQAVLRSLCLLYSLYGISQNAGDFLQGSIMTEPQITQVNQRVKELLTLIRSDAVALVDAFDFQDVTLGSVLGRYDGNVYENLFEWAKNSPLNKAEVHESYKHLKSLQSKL

[5] = target: MAP/microtubule affinity-regulating kinase 3 (Homo sapiens, UniProt P27448)
Chain of MAP/microtubule affinity-regulating kinase 3 (P27448 whole entry): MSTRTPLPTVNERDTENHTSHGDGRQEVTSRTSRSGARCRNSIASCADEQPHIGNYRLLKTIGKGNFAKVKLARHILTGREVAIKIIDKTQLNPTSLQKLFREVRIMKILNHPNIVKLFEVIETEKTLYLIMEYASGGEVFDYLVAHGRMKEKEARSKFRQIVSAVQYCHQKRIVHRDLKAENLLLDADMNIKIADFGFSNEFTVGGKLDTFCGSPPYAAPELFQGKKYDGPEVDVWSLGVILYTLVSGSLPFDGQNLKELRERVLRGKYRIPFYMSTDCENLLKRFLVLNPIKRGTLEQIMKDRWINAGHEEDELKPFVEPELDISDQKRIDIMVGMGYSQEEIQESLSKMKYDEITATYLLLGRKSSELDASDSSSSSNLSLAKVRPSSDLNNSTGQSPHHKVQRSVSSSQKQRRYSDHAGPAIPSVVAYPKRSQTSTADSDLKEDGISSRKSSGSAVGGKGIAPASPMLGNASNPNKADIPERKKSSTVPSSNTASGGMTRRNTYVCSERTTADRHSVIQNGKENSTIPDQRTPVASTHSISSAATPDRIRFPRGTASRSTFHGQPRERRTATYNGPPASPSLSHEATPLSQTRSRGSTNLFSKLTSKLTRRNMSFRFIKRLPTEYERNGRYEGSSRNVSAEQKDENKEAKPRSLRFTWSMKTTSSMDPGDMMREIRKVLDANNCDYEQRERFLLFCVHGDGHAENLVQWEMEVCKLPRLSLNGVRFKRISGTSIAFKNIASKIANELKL

[6] = target: T4, MAP/microtubule affinity-regulating kinase 4 (Homo sapiens, UniProt Q96L34)
T4 sequence (Q96L34 whole entry): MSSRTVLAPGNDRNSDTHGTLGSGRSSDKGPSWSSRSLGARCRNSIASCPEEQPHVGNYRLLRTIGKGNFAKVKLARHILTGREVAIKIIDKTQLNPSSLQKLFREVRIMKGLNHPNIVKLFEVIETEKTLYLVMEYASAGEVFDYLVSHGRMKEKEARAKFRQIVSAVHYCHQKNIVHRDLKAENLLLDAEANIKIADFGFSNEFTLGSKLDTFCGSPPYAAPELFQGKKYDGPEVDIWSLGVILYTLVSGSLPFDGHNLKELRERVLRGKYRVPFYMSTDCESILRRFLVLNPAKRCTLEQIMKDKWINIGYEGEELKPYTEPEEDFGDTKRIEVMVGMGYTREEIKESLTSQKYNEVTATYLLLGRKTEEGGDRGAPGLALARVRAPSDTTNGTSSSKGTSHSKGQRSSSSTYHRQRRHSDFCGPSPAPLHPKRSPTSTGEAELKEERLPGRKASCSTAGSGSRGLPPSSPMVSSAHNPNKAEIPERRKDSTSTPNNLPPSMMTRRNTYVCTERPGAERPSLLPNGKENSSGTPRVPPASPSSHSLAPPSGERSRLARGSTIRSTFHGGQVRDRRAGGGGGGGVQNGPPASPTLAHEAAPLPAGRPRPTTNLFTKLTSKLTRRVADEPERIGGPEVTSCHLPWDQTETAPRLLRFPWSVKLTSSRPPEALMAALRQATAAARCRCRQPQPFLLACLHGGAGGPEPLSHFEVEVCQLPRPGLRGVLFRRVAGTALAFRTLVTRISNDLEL

[7] = target: T5, Dual specificity mitogen-activated protein kinase kinase 6 (Homo sapiens, UniProt P52564)
T5 sequence (P52564 whole entry): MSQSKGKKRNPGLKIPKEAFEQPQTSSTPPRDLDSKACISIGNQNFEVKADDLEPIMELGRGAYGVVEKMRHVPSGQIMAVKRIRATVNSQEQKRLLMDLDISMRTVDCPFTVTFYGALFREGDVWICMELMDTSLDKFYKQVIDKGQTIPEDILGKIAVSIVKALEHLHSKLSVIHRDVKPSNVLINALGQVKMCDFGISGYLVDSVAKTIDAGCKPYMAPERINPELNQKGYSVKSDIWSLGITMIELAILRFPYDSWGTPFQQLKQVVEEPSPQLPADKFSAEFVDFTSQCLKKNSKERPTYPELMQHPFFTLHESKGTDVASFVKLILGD

Measured: Kd
Further: in the data inactive means no Kd found up to 30 µM.

Chain of Macrophage-stimulating protein receptor (Q04912 25-304 limits assumed): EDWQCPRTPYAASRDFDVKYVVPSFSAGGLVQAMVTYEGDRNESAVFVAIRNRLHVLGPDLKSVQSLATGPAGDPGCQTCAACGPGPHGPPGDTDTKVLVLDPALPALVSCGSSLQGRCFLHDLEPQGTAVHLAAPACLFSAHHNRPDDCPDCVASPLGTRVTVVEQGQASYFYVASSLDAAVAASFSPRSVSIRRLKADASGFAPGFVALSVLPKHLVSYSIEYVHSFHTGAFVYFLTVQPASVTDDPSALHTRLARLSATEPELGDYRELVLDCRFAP
Chain of Macrophage-stimulating protein receptor (Q04912 310-1400 limits assumed): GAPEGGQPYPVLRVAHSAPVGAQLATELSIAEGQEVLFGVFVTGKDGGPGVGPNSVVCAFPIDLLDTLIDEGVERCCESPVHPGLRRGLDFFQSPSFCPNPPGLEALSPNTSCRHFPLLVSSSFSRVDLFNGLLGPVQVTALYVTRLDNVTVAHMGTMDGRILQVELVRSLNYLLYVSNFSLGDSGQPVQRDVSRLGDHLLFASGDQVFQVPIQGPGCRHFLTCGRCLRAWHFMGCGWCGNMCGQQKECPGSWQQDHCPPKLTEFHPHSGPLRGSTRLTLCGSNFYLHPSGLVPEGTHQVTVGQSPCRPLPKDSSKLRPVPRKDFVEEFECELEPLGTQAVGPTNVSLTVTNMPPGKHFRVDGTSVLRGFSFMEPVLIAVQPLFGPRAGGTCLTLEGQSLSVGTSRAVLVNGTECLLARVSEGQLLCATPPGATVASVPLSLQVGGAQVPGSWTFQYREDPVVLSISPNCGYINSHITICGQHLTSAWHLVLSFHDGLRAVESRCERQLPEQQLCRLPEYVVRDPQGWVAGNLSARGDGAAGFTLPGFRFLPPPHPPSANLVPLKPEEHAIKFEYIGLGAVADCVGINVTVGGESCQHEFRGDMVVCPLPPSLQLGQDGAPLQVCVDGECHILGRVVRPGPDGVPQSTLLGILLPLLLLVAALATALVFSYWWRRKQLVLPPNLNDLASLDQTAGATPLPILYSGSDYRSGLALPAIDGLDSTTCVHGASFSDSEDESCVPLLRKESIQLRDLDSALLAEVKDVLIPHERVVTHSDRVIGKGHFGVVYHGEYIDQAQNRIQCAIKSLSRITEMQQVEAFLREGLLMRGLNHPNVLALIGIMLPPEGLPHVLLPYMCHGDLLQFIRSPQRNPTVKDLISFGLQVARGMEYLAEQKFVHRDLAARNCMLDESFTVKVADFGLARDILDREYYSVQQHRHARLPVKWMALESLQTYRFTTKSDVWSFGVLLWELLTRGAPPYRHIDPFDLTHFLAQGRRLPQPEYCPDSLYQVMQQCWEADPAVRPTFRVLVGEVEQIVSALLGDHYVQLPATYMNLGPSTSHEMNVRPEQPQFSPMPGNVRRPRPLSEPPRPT

CO[C@H]1C[C@@H]2CC[C@@H](C)[C@@](O)(O2)C(=O)C(=O)N2CCCC[C@H]2C(=O)O[C@H]([C@H](C)C[C@@H]2CC[C@@H](OCCO)[C@H](OC)C2)CC(=O)[C@H](C)/C=C(\C)[C@@H](O)[C@@H](OC)C(=O)[C@H](C)C[C@H](C)/C=C/C=C/C=C/1C [EVEROLIMUS]
inactive: [1] > 30 µM | [2] > 30 µM | [3] > 30 µM | [4] > 30 µM | [5] > 30 µM | [6] > 30 µM | [7] > 30 µM

O=C1NC(=O)/C(=C/c2ccc3nccc(-c4ccncc4)c3c2)S1 [GSK-1059615]
inactive: [1] > 30 µM | [2] > 30 µM | [3] > 30 µM | [4] > 30 µM | [5] > 30 µM | [6] > 30 µM | [7] > 30 µM

CC[C@H](Nc1ncnc2[nH]cnc12)c1nc2cccc(F)c2c(=O)n1-c1ccccc1 [IDELALISIB]
inactive: [1] > 30 µM | [2] > 30 µM | [3] > 30 µM | [4] > 30 µM | [5] > 30 µM | [6] > 30 µM | [7] > 30 µM

Cn1cc(-c2ccc3nnc(C(F)(F)c4ccc5ncccc5c4)n3n2)cn1 [JNJ-38877605]
inactive: [1] > 30 µM | [2] > 30 µM | [3] > 30 µM | [4] > 30 µM | [5] > 30 µM | [6] > 30 µM | [7] > 30 µM

COc1cc2nccc(Oc3ccc(NC(=O)NC4CC4)c(Cl)c3)c2cc1C(N)=O [LENVATINIB]
inactive: [1] > 30 µM | [2] > 30 µM | [3] > 30 µM | [4] > 30 µM | [5] > 30 µM | [6] > 30 µM | [7] > 30 µM

Cn1cc(-c2ccc(F)c(C(F)(F)F)c2)nc1C1CCN(c2ncnc3[nH]ncc23)CC1 [LY-2584702]
inactive: [1] > 30 µM | [2] > 30 µM | [3] > 30 µM | [4] > 30 µM | [5] > 30 µM | [6] > 30 µM | [7] > 30 µM

C1=C/COCc2cc(ccc2OCCN2CCCC2)Nc2nccc(n2)-c2cccc(c2)COC/1 [PACRITINIB]
inactive: [1] > 30 µM | [2] > 30 µM | [3] > 30 µM | [4] > 30 µM | [5] > 30 µM | [6] > 30 µM | [7] > 30 µM

CNC(=O)c1ccc(C)c(-n2c(C)cc(OCc3ccc(F)cc3F)c(Br)c2=O)c1 [PH-797804]
inactive: [1] > 30 µM | [2] > 30 µM | [3] > 30 µM | [4] > 30 µM | [5] > 30 µM | [6] > 30 µM | [7] > 30 µM

C=CC(=O)N1CCC(Oc2cc3c(Nc4ccc(Cl)c(Cl)c4F)ncnc3cc2OC)CC1 [POZIOTINIB]
inactive: [1] > 30 µM | [2] > 30 µM | [3] > 30 µM | [4] > 30 µM | [5] > 30 µM | [6] > 30 µM | [7] > 30 µM

CNC(=O)c1cc(Oc2ccc(NC(=O)Nc3ccc(Cl)c(C(F)(F)F)c3)c(F)c2)ccn1 [REGORAFENIB]
inactive: [1] > 30 µM | [2] > 30 µM | [3] > 30 µM | [4] > 30 µM | [5] > 30 µM | [6] > 30 µM | [7] > 30 µM

CN(C)C(=O)c1cc2cnc(Nc3ccc(N4CCNCC4)cn3)nc2n1C1CCCC1 [RIBOCICLIB]
inactive: [1] > 30 µM | [2] > 30 µM | [3] > 30 µM | [4] > 30 µM | [5] > 30 µM | [6] > 30 µM | [7] > 30 µM

CNC(=O)CN1CCC(Oc2cc3c(Nc4cccc(Cl)c4F)ncnc3cc2OC)CC1 [SAPITINIB]
inactive: [1] > 30 µM | [2] > 30 µM | [3] > 30 µM | [4] > 30 µM | [5] > 30 µM | [6] > 30 µM | [7] > 30 µM

CN1CCC(CNc2ccc3ncc(-c4cccc(OC(F)(F)F)c4)n3n2)CC1 [SGI-1776]
inactive: [1] > 30 µM | [2] > 30 µM | [3] > 30 µM | [4] > 30 µM | [5] > 30 µM | [6] > 30 µM | [7] > 30 µM

C[C@@H]1CN(Cc2ccc(F)cc2)[C@@H](C)CN1C(=O)c1cc2c(C(=O)C(=O)N(C)C)cn(C)c2cc1Cl [TALMAPIMOD]
inactive: [1] > 30 µM | [2] > 30 µM | [3] > 30 µM | [4] > 30 µM | [5] > 30 µM | [6] > 30 µM | [7] > 30 µM

CN1CCC(COc2cnc(-c3cccc(Cn4nc(-c5cccc(C#N)c5)ccc4=O)c3)nc2)CC1 [TEPOTINIB]
inactive: [1] > 30 µM | [2] > 30 µM | [3] > 30 µM | [4] > 30 µM | [5] > 30 µM | [6] > 30 µM | [7] > 30 µM

O=c1sn(-c2cccc3ccccc23)c(=O)n1Cc1ccccc1 [TIDEGLUSIB]
inactive: [1] > 30 µM | [2] > 30 µM | [3] > 30 µM | [4] > 30 µM | [5] > 30 µM | [6] > 30 µM | [7] > 30 µM

COc1cc2nccc(Oc3ccc(NC(=O)Nc4cc(C)on4)c(Cl)c3)c2cc1OC [TIVOZANIB]
inactive: [1] > 30 µM | [2] > 30 µM | [3] > 30 µM | [4] > 30 µM | [5] > 30 µM | [6] > 30 µM | [7] > 30 µM

CC(=O)Nc1cccc(-n2c(=O)n(C3CC3)c(=O)c3c(Nc4ccc(I)cc4F)n(C)c(=O)c(C)c32)c1 [TRAMETINIB]
inactive: [1] > 30 µM | [2] > 30 µM | [3] > 30 µM | [4] > 30 µM | [5] > 30 µM | [6] > 30 µM | [7] > 30 µM

CN1N=C(N)c2cn([C@@H]3O[C@H](COP(=O)(O)O)[C@@H](O)[C@H]3O)c3ncnc1c23 [TRICIRIBINE PHOSPHATE]
inactive: [1] > 30 µM | [2] > 30 µM | [3] > 30 µM | [4] > 30 µM | [5] > 30 µM | [6] > 30 µM | [7] > 30 µM
